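Test compounds were applied to cells in 96-well plates for 48 hours at 5 doses. GI50: concentration for 50% inhibition of growth.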 Calls of active or inactive are those of the source. No stated cut-off is given here; in the data, active = GI50 up to about 1.1 µM and inactive = higher.
What was measured:
Experiment in all cases: NCI tumour cell line growth inhibition, 48 h
[1] = tested on: MDA-N
[2] = tested on: UACC-257
[3] = tested on: MCF7
[4] = tested on: HL-60
[5] = tested on: IGROV-1
[6] = tested on: NCI-H460
[7] = tested on: HCT-116
[8] = tested on: KM12
[9] = tested on: BT-549
[10] = tested on: SNB-75
[11] = tested on: DU-145
[12] = tested on: SR
[13] = tested on: PC-3
[14] = tested on: HCT-15
[15] = tested on: OVCAR-3
[16] = tested on: SF-539
[17] = tested on: 786-0
[18] = tested on: Hs-578T
[19] = tested on: LOX IMVI
[20] = tested on: K562

SMILES | GI50 [1] | GI50 [2] | GI50 [3] | GI50 [4] | GI50 [5] | GI50 [6] | GI50 [7] | GI50 [8] | GI50 [9] | GI50 [10] | GI50 [11] | GI50 [12] | GI50 [13] | GI50 [14] | GI50 [15] | GI50 [16] | GI50 [17] | GI50 [18] | GI50 [19] | GI50 [20]
c1ccc(CCNCc2ccco2)nc1 | > 100 µM (inactive) | > 100 µM (inactive) | > 83.9 µM (inactive) | > 100 µM (inactive) | > 100 µM (inactive) | > 100 µM (inactive) | > 100 µM (inactive) | > 100 µM (inactive) | > 100 µM (inactive) | > 77.4 µM (inactive) | > 100 µM (inactive) | 1 µM (active) | > 100 µM (inactive) | > 100 µM | > 100 µM (inactive) | > 100 µM (inactive) | > 100 µM (inactive) | > 100 µM (inactive) | > 100 µM (inactive) | 
O=c1[nH]c(=O)n(COCc2ccccc2)c2ccsc12 | > 100 µM (inactive) | > 100 µM (inactive) | > 100 µM (inactive) | > 10 µM (inactive) | > 100 µM (inactive) | 55.8 µM (inactive) | > 100 µM (inactive) | > 100 µM (inactive) | > 100 µM (inactive) | 75 µM (inactive) | > 100 µM (inactive) | 88.7 µM (inactive) | 61.9 µM (inactive) | 29.2 µM |  | 66.8 µM (inactive) | > 100 µM (inactive) | 49.1 µM (inactive) | > 100 µM (inactive) | 59 µM (inactive)
O=Cc1cccc2c1Oc1c(cccc1C(=O)O)S2 | 59.2 µM (inactive) | > 100 µM (inactive) | 89.3 µM (inactive) |  | > 100 µM (inactive) | 50.4 µM (inactive) | 28.2 µM (inactive) | 13.7 µM (inactive) | > 100 µM (inactive) | 78.7 µM (inactive) | 56.1 µM (inactive) | < 0.01 µM (active) | > 100 µM (inactive) | 35.4 µM | 33.3 µM (inactive) | 38.9 µM (inactive) | 76.2 µM (inactive) | 65.9 µM (inactive) | 45.7 µM (inactive) | 
CCOC(=O)c1c(NC(=O)c2ccc(OC)cc2)sc2c1CCCC2 | > 100 µM (inactive) | > 100 µM (inactive) | > 100 µM (inactive) | 2.25 µM (inactive) | > 100 µM (inactive) | > 100 µM (inactive) | > 100 µM (inactive) | > 100 µM (inactive) | > 100 µM (inactive) |  | > 100 µM (inactive) | > 100 µM (inactive) | > 100 µM (inactive) |  | > 100 µM (inactive) | > 100 µM (inactive) | > 100 µM (inactive) | > 100 µM (inactive) |  | > 100 µM (inactive)
O=c1[nH]c2nc[nH]c2c(=O)n1C1CCCCC1 | > 100 µM (inactive) | > 100 µM (inactive) | > 100 µM (inactive) | 6.01 µM (inactive) | > 100 µM (inactive) | > 100 µM (inactive) | > 100 µM (inactive) | > 100 µM (inactive) | > 100 µM (inactive) | > 100 µM (inactive) | > 100 µM (inactive) | > 100 µM (inactive) | > 100 µM (inactive) | > 100 µM | > 100 µM (inactive) | > 100 µM (inactive) | > 100 µM (inactive) | > 100 µM (inactive) |  | > 100 µM (inactive)
CN(C)CCCn1cnc2cc(Cl)c(Cl)cc21 | 34.1 µM (inactive) | 19.8 µM (inactive) | > 100 µM (inactive) | > 100 µM (inactive) | 56.4 µM (inactive) | 91.8 µM (inactive) | 48 µM (inactive) | > 100 µM (inactive) | 66.7 µM (inactive) | 33.1 µM (inactive) | > 100 µM (inactive) | 93.5 µM (inactive) | > 100 µM (inactive) | > 100 µM | > 100 µM (inactive) |  | 59.6 µM (inactive) | > 100 µM (inactive) | 59.2 µM (inactive) | 67.3 µM (inactive)
COc1cc2nc(-c3ccccc3F)nc(O)c2cc1OC | > 100 µM (inactive) | > 100 µM (inactive) | 86.9 µM (inactive) | > 100 µM (inactive) | > 100 µM (inactive) | 71.8 µM (inactive) | > 100 µM (inactive) | > 100 µM (inactive) | > 100 µM (inactive) | > 100 µM (inactive) | > 100 µM (inactive) | > 100 µM (inactive) | > 100 µM (inactive) | 49.2 µM | > 100 µM (inactive) |  | > 100 µM (inactive) | 42.9 µM (inactive) | > 100 µM (inactive) | > 100 µM (inactive)
COc1ccc(/N=N/C(=N\c2ccccc2)c2ccc(N(CCC#N)CCC#N)cc2)cc1 | 85.9 µM (inactive) | 23.8 µM (inactive) | 22.5 µM (inactive) |  | 23.4 µM (inactive) | 36.5 µM (inactive) | 43.4 µM (inactive) | 26 µM (inactive) | 47.6 µM (inactive) | 38.3 µM (inactive) | 76.9 µM (inactive) | 25.9 µM (inactive) | 40.6 µM (inactive) | 81.3 µM | 18 µM (inactive) | 28 µM (inactive) | 60.4 µM (inactive) | 45.8 µM (inactive) |  | 31.3 µM (inactive)
CC(=O)OCC1OC(SC2=N/C(=C\c3ccc(Br)s3)C(=O)N2CN2CCOCC2)C(OC(C)=O)C(OC(C)=O)C1OC(C)=O (stereo not given) | 18 µM (inactive) | 16.6 µM (inactive) | 15.4 µM (inactive) | 3.77 µM (inactive) | 16.8 µM (inactive) | 18.6 µM (inactive) | 13.9 µM (inactive) | 17.2 µM (inactive) | 14.9 µM (inactive) | 25.4 µM (inactive) | 16.5 µM (inactive) | 12.6 µM (inactive) | 23 µM (inactive) | 16.6 µM | > 10 µM (inactive) |  | 16.7 µM (inactive) | 19.5 µM (inactive) | 12.9 µM (inactive) | 10.3 µM (inactive)
O=[N+]([O-])c1ccc(Oc2c(Cl)cc(S(=O)(=O)N/C(=N\O)Nc3ccc(Cl)cc3)cc2Cl)cc1 | 12 µM (inactive) | 10.6 µM (inactive) | 7 µM (inactive) | 2.47 µM (inactive) | 14 µM (inactive) | 11.6 µM (inactive) | 10.5 µM (inactive) | 13.5 µM (inactive) | 12 µM (inactive) |  | 15.1 µM (inactive) | 4.02 µM (inactive) | 10.4 µM (inactive) | 11.2 µM | 5.87 µM (inactive) | 13.5 µM (inactive) | 11.2 µM (inactive) | 14.6 µM (inactive) | 11.1 µM (inactive) | 13.8 µM (inactive)
COC(=O)C(Cc1ccccc1)NC(=O)C(CCCNC(=N)N)NC(=O)OCc1ccccc1 (stereo not given) | > 100 µM (inactive) |  | > 100 µM (inactive) | > 100 µM (inactive) | > 100 µM (inactive) | > 100 µM (inactive) | > 100 µM (inactive) | > 100 µM (inactive) | > 100 µM (inactive) | > 100 µM (inactive) | > 100 µM (inactive) | > 100 µM (inactive) | > 100 µM (inactive) | > 100 µM | > 100 µM (inactive) |  | > 100 µM (inactive) | > 100 µM (inactive) | > 100 µM (inactive) | > 100 µM (inactive)
CC(C)(C)C(=O)CC1(O)C=C(O)C(O)(CC(=O)C(C)(C)C)O1 (stereo not given) | 43.2 µM (inactive) | 42.3 µM (inactive) | 24.8 µM (inactive) | 24.9 µM (inactive) | 7.13 µM (inactive) | 10.1 µM (inactive) | 4.71 µM (inactive) | 63.5 µM (inactive) | 66.4 µM (inactive) |  | 50.2 µM (inactive) | 4.55 µM (inactive) | 44.8 µM (inactive) | 8.77 µM | 59.4 µM (inactive) | 18.8 µM (inactive) | 4.86 µM (inactive) | 35.2 µM (inactive) | 12.5 µM (inactive) | 54.8 µM (inactive)
S=C1CSc2c(ccc3ccccc23)N1 | > 100 µM (inactive) | > 100 µM (inactive) | > 100 µM (inactive) | > 100 µM (inactive) | > 100 µM (inactive) | > 100 µM (inactive) | > 100 µM (inactive) | > 100 µM (inactive) | > 100 µM (inactive) | > 100 µM (inactive) | > 100 µM (inactive) | > 100 µM (inactive) | > 100 µM (inactive) | > 100 µM | > 100 µM (inactive) |  | > 100 µM (inactive) | 51.4 µM (inactive) | > 100 µM (inactive) | > 100 µM (inactive)
Cc1cc(=O)n2nc(CSc3nnc(N)s3)sc2n1 | > 100 µM (inactive) | > 100 µM (inactive) | > 100 µM (inactive) | > 100 µM (inactive) | > 100 µM (inactive) | > 100 µM (inactive) | > 100 µM (inactive) | > 100 µM (inactive) | > 100 µM (inactive) | > 100 µM (inactive) | > 100 µM (inactive) |  | > 100 µM (inactive) | > 100 µM | > 100 µM (inactive) | > 100 µM (inactive) | > 100 µM (inactive) | > 100 µM (inactive) | > 100 µM (inactive) | > 100 µM (inactive)
CC(=O)O[C@H]1CC[C@@]2(C)C(=CC[C@@H]3[C@@H]2CC[C@]2(C)c4c(C)nn(-c5ccccc5)c4C[C@@H]32)C1 | 23.1 µM (inactive) | 29.9 µM (inactive) | 32.8 µM (inactive) | 24.2 µM (inactive) | 43.4 µM (inactive) | 13.8 µM (inactive) | 31 µM (inactive) | 23 µM (inactive) | 9.95 µM (inactive) | 15.6 µM (inactive) | 17 µM (inactive) | 13 µM (inactive) | 26.7 µM (inactive) | 37.1 µM | 28.7 µM (inactive) |  | 13.6 µM (inactive) | 11.2 µM (inactive) | 12.3 µM (inactive) | 2.65 µM (inactive)

Source: ChEMBL document CHEMBL1201862, “PubChem BioAssay data set” (2004)
